# Laboratory results published in patent US9315489B2, “Compounds and compositions for inhibiting the activity of ABL1, ABL2 and BCR-ABL1” (Novartis AG, priority 2012, dated 2016).
# How the values were obtained:
# ABL1 (64-515) [1] = target: T1, ABL1 (64-515) (Homo sapiens (Human), UniProt P00519); test: Radio ABL1 (64-515) assay (radiometric filter-binding); format: biochemical
# ABL1 (64-515) [2] = target: T1, ABL1 (64-515); test: Caliper ABL1 (64-515) assay (microfluidic mobility shift); format: biochemical
# Ba/F3-BCR-ABL1-WT cells = test: Ba/F3-BCR-ABL1-WT cellular proliferation assay; format: cell-based, murine; conditions: Mus musculus; 48 hours; read-out: Ba/F3-BCR-ABL1-WT IC50
# [3] = test system: Ba/F3-BCR-ABL1-T315I cells; test: Ba/F3-BCR-ABL1-T315I cellular proliferation assay; format: cell-based, murine; conditions: Mus musculus; 48 hours; read-out: Ba/F3-BCR-ABL1-T315I IC50
# From the text: The murine bone marrow-derived cell line Ba/F3 was used to generate the appropriate cell line models. Ba/F3 cells were obtained from the German Collection of Microorganisms and Cell Cultures (DSMZ, Braunschweig and DSMZ No. ACC 300). […] These cells are referred to as Ba/F3-WT.
# To generate Ba/F3 cells that depend on BCR-ABL1 expression for growth and survival, Ba/F3 cells were engineered to express BCR-ABL1 using retroviral transduction with a MSCV based retroviral vector containing a p210 BCR-ABL1expression cassette. When grown in the absence of IL-3, the proliferation of the cells is dependent on the expression of BCR-ABL1. (Daley, G. Q. and Baltimore, D. Transformation of an interleukin 3-dependent hematopoietic cell line by the chronic myeloid leukemia-specific p210 BCR-ABL1 protein. PNAS 1988; 85:9312-9316). These cells are referred to as Ba/F3-BCR-ABL1-WT. A similar approach was used to generate Ba/F3 cells that depend on a BCR-ABL1 variant in which threonine 315 is replaced with isoleucine. These cells are referred to as Ba/F3-BCR-ABL1-T3151.
# Ba/F3-WT cells were maintained in RPMI1640 media with L-glutamine, HEPES (Lonza), 10% FBS (Gibco) and 5 ng/ml IL-3 (Calbiochem). Ba/F3-BCR-ABL1-WT cells and Ba/F3-BCR-ABL1-T3151 cells were maintained in RPMI1640 media with L-glutamine, HEPES (Lonza) and 10% FBS (Gibco).
# For each cell line, the cell density was adjusted to 50 000 cells/mL and 50 μL (2500 cells) added per well of a 384-well assay plate.
# Test compounds were resuspended in DMSO at a concentration of 10 mM. A serial three-fold dilution of each compound with DMSO was performed in 384-well plates using the Janus Liquid Dispenser (PerkinElmer). Compound was delivered to the assay plates containing 2500 cells in a 50 μL volume via Acoustic delivery from an ATS-100 (EDC). For Ba/F3-BCR-ABL1-WT cell assays, […] of each compound dilution was transferred to the assay plate for final assay concentrations of 0.4 μM, 0.13 μM, 0.044 μM, 0.015 μM, 0.005 μM, 0.001 μM, 0.00033 μM, 0.00011 μM, 0.000037 μM, 0.000012 μM. For Ba/F3-WT and Ba/F3-BCR-ABL1-T315I cell assays, […] of each compound dilution was transferred to the assay plate for final assay concentrations of 10 μM, 3.33 μM, 1.11 μM, 0.37 μM, 0.12 μM, 0.041 μM, 0.014 μM, 0.0046 μM, 0.0015 μM, 0.00051 μM.
# Cells were incubated at 37° C. in a humidified environment with 5% carbon dioxide for 48 hours. Britelite plus solution (Perkin Elmer) was prepared according to the manufacturer's instructions and 25 μL added to each well of the assay plate. Plates were incubated for 3-5 minutes and the luminescence detected on an EnVision Multimode plate reader (Perkin Elmer). The degree of luminescence correlates with the number of cells in each well. The effect of each inhibitor concentration can therefore be calculated and IC50 values generated.
# T1 sequence (P00519 64-515): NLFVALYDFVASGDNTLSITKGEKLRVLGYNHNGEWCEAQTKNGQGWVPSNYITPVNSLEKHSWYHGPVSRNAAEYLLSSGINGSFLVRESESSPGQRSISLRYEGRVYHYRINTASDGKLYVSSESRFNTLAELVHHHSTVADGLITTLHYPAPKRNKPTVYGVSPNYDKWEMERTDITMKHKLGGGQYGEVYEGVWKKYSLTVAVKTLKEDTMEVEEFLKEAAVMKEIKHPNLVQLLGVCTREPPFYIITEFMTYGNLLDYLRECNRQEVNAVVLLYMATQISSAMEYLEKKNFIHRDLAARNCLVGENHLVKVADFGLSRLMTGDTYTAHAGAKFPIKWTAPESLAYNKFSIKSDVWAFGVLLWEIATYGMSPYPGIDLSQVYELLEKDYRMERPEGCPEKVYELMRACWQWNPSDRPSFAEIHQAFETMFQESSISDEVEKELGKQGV
IC50 (ABL1 (64-515) [1]) [nM],IC50 (ABL1 (64-515) [2]) [nM],IC50 (Ba/F3-BCR-ABL1-WT cells) [nM],IC50 [3] [nM],SMILES
8.5,3.5,2.1,306,"Cc1ccc(C(=O)Nc2ccc(OC(F)(F)F)cc2)cc1-c1cncnc1 [Example 14, 4-Methyl-3-(pyrimidin-5-yl)-N-(4-(trifluoromethoxy)phenyl)benzamide]"
9,6.2,18,363,"N#CC1(c2ncc(C(=O)Nc3ccc(OC(F)(F)F)cc3)cc2-c2cncnc2)CCC1 [Example 48, 6-(1-Cyanocyclobutyl)-5-(pyrimidin-5-yl)-N-(4-(trifluoromethoxy)phenyl)nicotinamide]"
49,9.4,–,754,"CCOc1ncc(C(=O)Nc2ccc(OC(F)(F)F)cc2)cc1-c1cncnc1 [Example 58, 6-Ethoxy-5-(pyrimidin-5-yl)-N-(4-(trifluoromethoxy)phenyl)nicotinamide]"
1.2,3.8,–,456,"O=C(Nc1ccc(OC(F)(F)Cl)cc1)c1cnc(OC2CCOCC2)c(-c2cncnc2)c1 [Example 67, N-(4-(Chlorodifluoromethoxy)phenyl)-5-(pyrimidin-5-yl)-6-((tetrahydro-2h-pyran-4-yl)oxy)nicotinamide]"
–,26,38,655,"O=C(Nc1ccc(OC(F)(F)F)cc1)c1cncc(-c2cncc(F)c2)c1 [Example 75, 5′-Fluoro-N-(4-(trifluoromethoxy)phenyl)-[3,3′-bipyridine]-5-carboxamide]"
–,3.9,7,408,"O=C(Nc1ccc(OC(F)(F)Cl)cc1)c1cnc(Cl)c(-c2cncc(F)c2)c1 [Example 78, 2-Chloro-N-(4-(chlorodifluoromethoxy)phenyl)-5′-fluoro-[3,3′-bipyridine]-5-carboxamide]"

SMILES,IC50 (ABL1 (64-515) [1]) [nM],IC50 (ABL1 (64-515) [2]) [nM],IC50 (Ba/F3-BCR-ABL1-WT cells) [nM],IC50 [3] [nM]
"COC(=O)c1ccc(C(=O)Nc2ccc(OC(F)(F)F)cc2)cc1-c1cncnc1 [Example 68, Methyl 2-(pyrimidin-5-yl)-4-((4-(trifluoromethoxy)phenyl)carbamoyl)benzoate]",< 3,1.6,–,177
"O=C(Nc1ccc(OC(F)(F)Cl)cc1)c1cnc(Cl)c(-c2cncnc2)c1 [Example 76, 6-Chloro-N-(4-(chlorodifluoromethoxy)phenyl)-5-(pyrimidin-5-yl)nicotinamide]",–,2.9,2,61
